Measured values from article PMC3984256, “A PCNA-Derived Cell Permeable Peptide Selectively Inhibits Neuroblastoma Cell Growth” (PLoS ONE, 2014).
Where a SMILES comes first, the peptide text is derived from it. [ ]: non-standard residue; d: D form.

How the values were obtained:
[1] = test system: human neural crest stem cells (7SM0032); type: cell-based; details: 72 h
Protocol: (§1) The human NB cell lines, SK-N-DZ, SK-N-BE(2)c, SK-N-AS, SK-N-SH, and SK-N-FI were obtained from the American Type Culture Collection (Rockville, MD). Cells were maintained in DMEM with 10% fetal bovine serum (FBS), 100 units/ml penicillin, and 100 µg/ml streptomycin in the presence of 5% CO2 at 37°C. Human PBMCs from a healthy donor were purchased from Sanguine BioSciences (Valencia, CA) and grown in RPMI1640 with10% FBS, 100 units/ml penicillin, 100 µg/ml streptomycin, and 10 ng/ml IL-2 in the presence of 5% CO2 at 37°C. Human embryonic progenitor cell line 7SM0032 was acquired from Millipore (Billerica, MA) and grown in the hEPM-1 Media Kit purchased from the same company.
(§2) To measure cell growth, cells were seeded at 3×10^4/ml. After being allowed to attach overnight, cells were treated with various concentrations of the peptides for 72 h. Cell growth was measured by the CellTitor-Glo assay (Promega, Madison, WI) according to manufacturer's instruction. To measure apoptosis, cells were seeded at 1×10^5/ml onto a chamber slide. Once attached, cells were treated with the peptides for 48 h. Cells were fixed and analyzed by a TUNEL assay using the TMR red in situ cell death detection kit (Roche Diagnostics, Indianapolis, IN).

[2] = test system: human peripheral blood mononuclear cells (PBMC); type: cell-based; details: 72 h
Protocol: as §1, §2

synchronized cells = experiment: Cell cycle analysis of synchronized cells within 6 h (data not shown); type: cell-based; details: 6 h after mimosine release
Protocol: (§3) Cells were seeded at 1×10^5/ml. Once attached, cells were treated with or without R9-caPep for 48 hours. Cells were fixed in 60% ethanol and stained with propidium iodide (PI). The cellular PI fluorescence intensity was determined by flow cytometry. The flow cytometry data were analyzed by the FlowJo program to model various cell populations.
Cells were seeded at 1×10^5/ml onto a chamber slide and were allowed to attach overnight. To analyze the interaction of PCNA with FEN1, LIGI, or Pol ä, we first synchronize cells at the G1/S boundary. The synchronization is achieved by starving cells in medium containing 0.25% FBS for 24 h. Cells were further cultured in the complete medium containing 400 µM of mimosine for 24 h. To release cells into S phase, cells were washed and incubated in mimosine-free medium containing 30 µM R9-caPep or R9-srbPep for 6 h. We pre-determined that the majority of cells were in the S-phase 6 h after mimosine was removed (data not shown). Cells were fixed in ice-cold methanol:acetone (50%:50%) for 10 min or in 4% paraformaldehyde for 20 min at room temperature. Cells were incubated with a goat polyclonal anti-PCNA antibody (Santa Cruz) and a mouse monoclonal anti-FEN1 antibody (Santa Cruz), a mouse anti-POLD3 antibody (Sigma, St. Louis, MO), or a mouse anti-LIGI antibody (Abcam, Cambridge, MA) for 1 h at room temperature. […]

[3] = test system: SK-N-BE(2)c cells, DNA synthesis; experiment: BrdU incorporation assay; type: cell-based, human; details: peptide 7.5 h then 10 µM BrdU 30 min, vs R9-srbPep, triplicates
Protocol: SK-N-BE(2)c cells were treated with the peptides for 7.5 h and then incubated in 10 ìmol/L BrdU for an additional 30 min in the continuous presence of the peptides. Cells were detached with trypsin and fixed in Cytofix/Cytoperm buffer according to the manufacturer's instructions (BD Bioscience, San Jose, CA). Fixed cells were treated with DNase to expose incorporated BrdU and stained with FITC-conjugated anti-BrdU antibody (BD Bioscience) for 1 h at room temperature. Samples were analyzed by flow cytometry to quantify the amount of BrdU incorporation. Percentages of FITC-positive cells were determined by analysis with the FlowJo software. Statistical analysis was conducted using a two-tailed t-test.

SK-N-BE(2)c cells = experiment: Cell cycle analysis by PI flow cytometry, SK-N-BE(2)c; type: cell-based, human
Protocol: as §3

[4] = test system: Rad51 foci in SK-N-BE(2)c cells; experiment: Rad51 foci immunofluorescence after γ-irradiation; type: cell-based, human; details: 2 h peptide pretreatment, 5 Gy
Protocol: To study DNA damage and repair, attached cells were pretreated with the peptides for 2 h and were then ã-irradiated (5 Gy). After irradiation, cells were cultured in the presence of the peptides for the indicated time. For analyzing ãH2A.X foci formation, cells were fixed in a solution of methanol and acetone (70%:30% v/v) for 15 min at −20°C. The slides were air-dried for storage and rehydrated in PBS prior to immunostaining. Cells were stained by a mouse monoclonal antibody specific to ãH2A.X (Millipore, Billerica, MA) followed by an Alexa Fluor 488 conjugated anti-mouse IgG antibody. For analyzing Rad51 foci formation, cells were fixed in PBS buffered 4% paraformaldehyde at room temperature for 15 min. After being washed twice by PBS, cells were permeabilized in PBS containing 0.5% triton for 15 min on ice. The fixed and permeabilized cells were stained with a rabbit polyclonal antibody raised against the human Rad51 (Santa Cruz) followed by an Alexa Fluor 488 conjugated anti-rabbit IgG antibody. Stained cells were visualized and imaged by a confocal microscope.

[5] = test system: xenograft tumors derived from the SK-N-BE2(c) cells; experiment: SK-N-BE(2)c xenograft tumor model in nude mice; type: in vivo, mouse; details: n = 10/group, intratumoral injection 3 times a week, vs PBS or R9-srbPep
Protocol: All experiments involving live animals were carried out in strict accordance with the recommendations in the Guide for the Care and Use of Laboratory Animals of the National Institutes of Health. The protocol (#11034) was reviewed and approved by the City of Hope Institutional Animal Care and Use Committee. Nude mice 6 weeks of age were purchased from the Jackson Laboratory (Bar Harbor, ME). SK-N-BE(2)c cells were harvested and washed twice in PBS. Cells were suspended in Matrigel (BD Biosciences) at 5×10^7/ml. 0.1 ml of suspended cells was subcutaneously injected into the right flank of each of 30 nude mice. Seven days after tumor inoculation, mice were randomly grouped into three groups with 10 mice in each group. The mice were treated with PBS, R9-srbPep, or R9-caPep 3 times a week by intratumoral injection. Tumor growth was measured weekly as well as at the end of the experiment by a dial caliper. Tumor volumes were estimated based on the length (L) and width (W) of the tumors (V = L×W^2×0.5). At the end of the experiment, tumors were isolated from sacrificed mice and their masses were measured.

## CC[C@H](C)[C@H](NC(=O)CNC(=O)[C@H](CC(C)C)NC(=O)[C@H](CS)NC(=O)[C@H](CS)NC(=O)[C@@H](CCCNC(=N)N)NC(=O)[C@@H](CCCNC(=N)N)NC(=O)[C@@H](CCCNC(=N)N)NC(=O)[C@@H](CCCNC(=N)N)NC(=O)[C@@H](CCCNC(=N)N)NC(=O)[C@@H](CCCNC(=N)N)NC(=O)[C@@H](CCCNC(=N)N)NC(=O)[C@@H](CCCNC(=N)N)NC(=O)[C@H](N)CCCNC(=N)N)C(=O)N1CCC[C@H]1C(=O)N[C@@H](CCC(=O)O)C(=O)N[C@@H](CCC(N)=O)C(=O)N[C@@H](CCC(=O)O)C(=O)N[C@@H](Cc1ccc(O)cc1)C(=O)O [R9-caPep] (H-[dR][dR][dR][dR][dR][dR][dR][dR][dR]CCLGIPEQEY-OH; N-terminus and C-terminus assumed)
[1]
  IC50: > 100 µM
[2]
  IC50: 98 µM
Synchronized cells
  cell cycle progress within 6 h: neither peptide significantly affected cell cycle progress within 6 h
[3]
  percentage of BrdU-positive cells: significant reduction in the percentage of BrdU-positive cells
SK-N-BE(2)c cells; NB cells (SK-N-BE(2)c), 48 h, 20 or 40 µM
  cell cycle arrest: caused S-phase arrest in NB cells
SK-N-BE(2)c cells; SK-N-BE(2)c, 40 µM, 48 h
  apoptosis: sub-G1 cell population: rise of a sub-G1 cell population
SK-N-BE(2)c cells; treatment longer than 6 h (Fig. 3c, 48 h)
  relative abundance of cells in S-phase, longer treatment: increased the relative abundance of cells in S-phase
[4]; 4 h after irradiation
  number of Rad51-positive cells at 4 h: reduced the number of Rad51-positive cells at 4 h after ã-irradiation
[4]; 48 h after irradiation
  Rad51 background staining at 48 h: strong and diffused background staining of Rad51
  Rad51 foci at 48 h: Rad51 foci remain visible
[5]; end of experiment
  tumor growth (tumor mass): significantly and nearly completely inhibited tumor growth
[5]; ** p<0.01
  tumor growth (tumor volume): significantly and nearly completely inhibited tumor growth
